From PMC10630452, “The tumor-enriched small molecule gambogic amide suppresses glioma by targeting WDR1-dependent cytoskeleton remodeling” (Signal Transduction and Targeted Therapy, 2023)

Experiments:
hippocampal neurons = settings: cited from earlier work
[1] = Acute toxicity assay, body weight; format: in vivo, mice; settings: low dose 1 mg/kg, high dose 10 mg/kg, one-time i.v.
Method: a Hematoxylin and eosin staining of sections from control and GA-amide-treated livers, kidney and small intestines, scale bars were shown in the panel. b Persistent records of the body weights and the statistical results of the body weight changes after one-time i.v. treatments of control (DMSO), 1 mg/kg GA-amide and 10 mg/kg GA-amide (n = 6, for control and 1mg/kg GA-amide; n = 5, for 10mg/kg GA-amide) were shown.

PDCs = test: Apoptosis assay (annexin V/PI flow cytometry); format: cell-based, human; settings: 4 h, varying concentrations
Method: An apoptosis detection kit (KeyGEN BioTECH) was used for the PDC apoptosis assay. After treatment with different concentrations of GA-amide, cells were collected and resuspended in 100 µL of binding buffer with 1 µl FITC Annexin V and 1 µl PI for 15 min at room temperature in the dark. The cell suspensions were analyzed by flow cytometry within 1 h.

[2] = tested on: glioma-related cells (PDCs, GCs and GSCs); test: IC50 assay (MTS cell viability), span over cell lines; format: cell-based; settings: span over PDC, GC and GSC lines
Method: Four PDC lines (T12-1, T12-2, T2-4, T19-1) obtained from the Beijing Tiantan Hospital[53] and three GSC lines (GSC2, U87MG-SLC, U251-SLC) were established and verified in our previous work.[17] Two GCSC lines were kindly provided by Dr. Ran.[54] These cell lines were cultured in neurobasal medium (Gibco) containing 2% B27 (Gibco), 1% 100 × Antibiotic-Antimycotic (Gibco), 2 mmol/L L-glutamine (catalog SH30034.01, HyClone), 20 ng/mL bFGF (catalog 100-18B-50UG, PeproTech), 20 ng/mL EGF (catalog AF-100-15-100UG, PeproTech), and 10 μg/mL heparin (Sigma‒Aldrich). H1-NSCs obtained from D.Q. Pei’s laboratory (Guangzhou Institutes of Biomedicine and Health, Chinese Academy of Sciences, Guangzhou, China), were cultured in the same medium as the PDCs, with the addition of 1% N-2 supplement (Gibco, Thermo Fisher Scientific). The human astrocyte (HA) cell line was purchased from ScienCell and cultured in commercial astrocyte medium (catalog 1801, ScienCell) supplemented with 1% AGS (ScienCell), 2% FBS (ScienCell) and 1% P/S solution (ScienCell). […]
Cells were seeded in 96-well plates and treated with 0, 0.03, 0.1, 0.3, 1, 3, 10, or 30 μM GA-amide (Santa Cruz) in triplicate. After 48 h of incubation, cell viability was quantified using the MTS assay, and the GA-amide cytotoxicity curve was estimated using GraphPad Prism.

[3] = tested on: GSC2 intracranial xenograft; test: GSC2-derived intracranial xenograft model; format: in vivo, nude mice; settings: 1 mg/kg i.v. daily for 13 days
Method: Fig. 3 The inhibitory effects of GA-amide in glioma stem cell-derived mouse models and transgenic mouse models. a, b GSC2 cells were implanted s.c. into nude mice. Mice were treated with control (DMSO) (n = 7) or GA-amide (2 mg/kg) (n = 8) via i.p. injection once daily for 11 days, after which a photograph (a) was taken to show the tumor volume, and the tumor volume was calculated by a modified ellipsoid formula in (b). c, d GSC2 cells were implanted intracranially into nude mice. Mice were injected i.v. with control (n = 8) or 1 mg/kg GA-amide (n = 8) daily for 13 days, the Mantel‒Cox log–rank test was used for analysis, and the relative survival curves are shown in (c). The body weights are shown in (d). e In vivo efficacy studies of GA-amide using transgenic mouse models. Glioma was induced in transgenic C57BL/6 mice by injection of pTomo-Ras-sip53 lentivirus, and the strategy is shown. f, g MRI analysis was used to group mice into the control (n = 7) and GA-amide-treated groups (n = 8) before treatment. […]
For the intracranial xenograft mouse models, 1 × 10^5 GSC2 or U87MG-SLC cells were injected into the frontal cortex (1 mm rostral to the bregma, 2 mm lateral to the midline, and 3 mm deep) using a microsyringe (Hamilton). […] The tumor size was measured by MRI, and survival analysis was performed in a blinded manner.

Which toxicity in vitro (hippocampal neurons; 0.5 μM) does the source give for `CC(C)=CCC[C@]1(C)C=Cc2c(O)c3c(c(CC=C(C)C)c2O1)O[C@]12C(=C[C@@H]4CC1C(C)(C)O[C@@]2(C/C=C(/C)C(N)=O)C4=O)C3=O` [GA-amide, gambogic amide] here?
Its toxicity in vitro is “did not display any toxicity in vitro”.

And the “concentrations with protective effect on hippocampal neurons against glutamate-triggered apoptosis” value (hippocampal neurons; also induced neurite outgrowth in PC12 cells)?
The value was 10 to 50 nM.

And the “body weight after a single injection” value [1]?
The value was “did not change the body weight”.

What about the “apoptosis (annexin V/PI)” value (PDCs) of the same compound?
The value was “significantly induced the apoptosis of PDCs in a dose-dependent manner”.

And the IC50 [2]?
The IC50 was 133 to 399 nM.

And the “mouse body weight versus control” value [3]?
Its value is “no significant difference in mouse body weight”.

And the survival [3]?
Its survival is “prolonged survival times”.
